Data published in patent US4372877A, “Di(acylperoxy)-1,4-cyclohexane dimethanol-bis-carbonates” (priority 1981, dated 1983).

Assays:
[1] = Ten-hour half-life temperature (0.1 M in benzene); format: physicochemical
From the text: Table I provides the ten-hour half-life of the compounds of the instant invention synthesized in Examples 1-3.
Peroxide (0.1 M in benzene)

[2] = Vinyl chloride suspension polymerization (% conversion)
Experimental: As mentioned, the instant bis-carbonates are useful for the initiation of monomers having polymerizable ethylenic or vinyl unsaturation, such as ethylene, styrene, methyl methacrylate and vinyl chloride and copolymers thereof. The data was generated with suspension polymerization performed in 12 ounce pop bottles using uninhibited monomer. Duplicate bottles were analyzed at each time interval for which data is listed. Bottles were frozen before venting off of excess monomer. Mixing speed of the pop bottles was 42 rpm. The water to vinyl chloride monomer ratio was 2.50. Each pop bottle contained 0.35 gms Dow Methocel 90 HG, 100 cps suspension agent per 100 gms vinyl chloride monomer.

[3] = Hot Block Gel Tests With Polyester Resin; conditions: block 180 °F, 1% wt peroxide (100% purity basis)
From the text: As mentioned above, the new molecules can be used for curing of polyester resins and this utility is illustrated in Tables V and VI below. Typical prior art peroxy dicarbonates and carbonates of the prior art are included for comparison.
Hot Block Gel Tests With Polyester Resin
Resin: MR 941 (U.S.S. Chemical - orthophthalic)
Concentrations of peroxide adjusted to 100% purity basis, 1% wt

[4] = Storage stability at 40 °C; format: physicochemical; set-up: A.O.: unit not given here
Experimental: APCD from Example 1 is selected as representative and was tested over a period of 89 days at 40° C. Representative peroxy carbonate and dicarbonates of the prior art are also included for comparison.
Storage Stability at 40° C.

[5] = disclosed in prior art U.S. patents; cited from earlier work
[6] = 55 °C, 5.5 Hrs., 2.01 × 10^-4 moles/100g VCM (APCD 0.070, LPCD 0.126, BPCD 0.095 % wt)
[7] = 55 °C, 5.5 Hrs., 2.30 × 10^-4 moles/100g VCM (APCD 0.080, LPCD 0.145, BPCD 0.109 % wt)
[8] = 60 °C, 5.0 Hrs., 1.15 × 10^-4 moles/100g VCM (APCD 0.040, LPCD 0.072, BPCD 0.054 % wt)
[9] = 60 °C, 5.0 Hrs., 1.45 × 10^-4 moles/100g VCM (APCD 0.051, LPCD 0.091 % wt)

CCCCCCCCCCCC(=O)OOC(=O)OCC1CCC(COC(=O)OOC(=O)CCCCCCCCCCC)CC1 (stereo not drawn) [LPCD, di(lauroylperoxy)-1,4-cyclohexane dimethanol bis-carbonate]
Ten-Hour Half-Life Temperature [1]: 51.4 °C | % Conversion [2, 6]: 60.9% | % Conversion [2, 7]: 72.0% | % Conversion [2, 8]: 51.4% | % Conversion [2, 9]: 65.4% | Exotherm Time ([3]; Table VI): 4.96 min | Gel Time ([3]; Table VI): 4.05 min

CC(=O)OOC(=O)OCC1CCC(COC(=O)OOC(C)=O)CC1 (stereo not drawn) [APCD, di(acetylperoxy)-1,4-cyclohexane dimethanol bis-carbonate]
Ten-Hour Half-Life Temperature [1]: 55.2 °C | % Purity ([4]; 0 days elapsed): 99.6% | A.O. ([4]; 0 days elapsed): 9.15 | % Purity ([4]; 7 days elapsed): 99.5% | A.O. ([4]; 7 days elapsed): 9.14 | % Purity ([4]; 14 days elapsed): 98.3% | A.O. ([4]; 14 days elapsed): 9.03 | % Purity ([4]; 28 days elapsed): 97.7% | A.O. ([4]; 28 days elapsed): 8.98 | % Purity ([4]; 59 days elapsed): 95.4% | A.O. ([4]; 59 days elapsed): 8.77 | % Purity ([4]; 89 days elapsed): 93.4% | A.O. ([4]; 89 days elapsed): 8.58 | % Conversion ([2]; 55 °C, 1.5 Hrs., 2.23 × 10^-4 moles/100g VCM (APCD 0.0775 % wt)): 13.6% | % Conversion ([2]; 55 °C, 3.5 Hrs., 2.23 × 10^-4 moles/100g VCM (APCD 0.0775 % wt)): 42.0% | % Conversion ([2]; 55 °C, 5.5 Hrs., 0.85 × 10^-4 moles/100g VCM (APCD 0.030 % wt)): 35.7% | % Conversion ([2]; 55 °C, 5.5 Hrs., 1.15 × 10^-4 moles/100g VCM (APCD 0.040 % wt)): 45.6% | % Conversion ([2]; 55 °C, 5.5 Hrs., 1.45 × 10^-4 moles/100g VCM (APCD 0.051 % wt)): 55.7% | % Conversion ([2]; 55 °C, 5.5 Hrs., 1.72 × 10^-4 moles/100g VCM (APCD 0.060, BPCD 0.081 % wt)): 60.5% | % Conversion [2, 6]: 71.5% | % Conversion ([2]; 55 °C, 5.5 Hrs., 2.23 × 10^-4 moles/100g VCM (APCD 0.0775 % wt)): 80.3% | % Conversion [2, 7]: 83.0% | % Conversion ([2]; 60 °C, 1.5 Hrs., 1.36 × 10^-4 moles/100g VCM (APCD 0.0475 % wt)): 15.1% | % Conversion ([2]; 60 °C, 3.5 Hrs., 1.36 × 10^-4 moles/100g VCM (APCD 0.0475 % wt)): 46.9% | % Conversion ([2]; 60 °C, 5.0 Hrs., 0.85 × 10^-4 moles/100g VCM (APCD 0.030, BPCD 0.040 % wt)): 48.5% | % Conversion [2, 8]: 65.9% | % Conversion ([2]; 60 °C, 5.0 Hrs., 1.36 × 10^-4 moles/100g VCM (APCD 0.0475 % wt)): 83.1% | % Conversion [2, 9]: 86.6% | Exotherm Time ([3]; Table V): 4.05 min | Gel Time ([3]; Table V): 3.38 min | Exotherm Time ([3]; Table VI): 4.20 min | Gel Time ([3]; Table VI): 3.58 min

CC(C)(COC(=O)OOC(=O)OCC(C)(C)c1ccccc1)c1ccccc1 [di(2-methyl-2-phenylpropyl) peroxy dicarbonate]
stability at room/ambient temperature [5]: ambient temperature stability

O=C(OOC(=O)OC1CCCCCCCCCCC1)OC1CCCCCCCCCCC1 [dicyclododecyl peroxy dicarbonate]
stability at room/ambient temperature [5]: stability that permits storage at room temperature

CC(C)(C)C1CCC(OC(=O)OOC(=O)OC2CCC(C(C)(C)C)CC2)CC1 (stereo not drawn) [Di(4-t-butylcyclohexyl) peroxydicarbonate]
Ten-Hour Half-Life Temperature [1]: 43.0 °C | % Purity ([4]; 0 days elapsed): 97.8% | A.O. ([4]; 0 days elapsed): 3.92 | % Purity ([4]; 7 days elapsed): 96.4% | A.O. ([4]; 7 days elapsed): 3.86 | % Purity ([4]; 14 days elapsed): 96.4% | A.O. ([4]; 14 days elapsed): 3.86 | % Purity ([4]; 28 days elapsed): 95.2% | A.O. ([4]; 28 days elapsed): 3.82 | % Purity ([4]; 59 days elapsed): 93.0% | A.O. ([4]; 59 days elapsed): 3.73 | % Purity ([4]; 89 days elapsed): 93.2% | A.O. ([4]; 89 days elapsed): 3.74 | Exotherm Time ([3]; Table V): 3.39 min | Gel Time ([3]; Table V): 2.46 min | Exotherm Time ([3]; Table VI): 3.58 min | Gel Time ([3]; Table VI): 2.74 min

O=C(OCCOc1ccccc1)OOC(=O)OCCOc1ccccc1 [di(phenoxyethyl) peroxydicarbonate]
Ten-Hour Half-Life Temperature [1]: 42.2 °C | % Purity ([4]; 0 days elapsed): 97.4% | A.O. ([4]; 0 days elapsed): 4.31 | % Purity ([4]; 7 days elapsed): 94.4% | A.O. ([4]; 7 days elapsed): 4.17 | % Purity ([4]; 14 days elapsed): 93.3% | A.O. ([4]; 14 days elapsed): 4.12 | % Purity ([4]; 28 days elapsed): 91.1% | A.O. ([4]; 28 days elapsed): 4.03 | % Purity ([4]; 59 days elapsed): 84.7% | A.O. ([4]; 59 days elapsed): 3.74 | % Purity ([4]; 89 days elapsed): 73.1% | A.O. ([4]; 89 days elapsed): 3.23 | Exotherm Time ([3]; Table V): 5.62 min | Gel Time ([3]; Table V): 5.45 min

CCCCCCCCCCCCCCCCCCOC(=O)OOC(C)=O [acetyl peroxystearyl carbonate]
% Purity ([4]; 0 days elapsed): 94.1% | A.O. ([4]; 0 days elapsed): 4.04 | % Purity ([4]; 7 days elapsed): 93.5% | A.O. ([4]; 7 days elapsed): 4.01 | % Purity ([4]; 14 days elapsed): 93.1% | A.O. ([4]; 14 days elapsed): 4.00 | % Purity ([4]; 28 days elapsed): 91.5% | A.O. ([4]; 28 days elapsed): 3.92 | % Purity ([4]; 59 days elapsed): 87.9% | A.O. ([4]; 59 days elapsed): 3.77 | % Purity ([4]; 89 days elapsed): 78.8% | A.O. ([4]; 89 days elapsed): 3.38 | Exotherm Time ([3]; Table V): 4.05 min | Gel Time ([3]; Table V): 3.13 min
